PMC12382740, “In Vitro and In Vivo Characterization of Novel Cathelicidin-Based Peptides with Antimicrobial Activity Against Pseudomonas aeruginosa” (Antibiotics, 2025)
Like-named read-outs stand apart in the source and are kept apart here. Bridge positions count the residues as written; N and C are the ends. Square brackets hold non-standard residues; d marks the D form. Ends that are not written are not given here. Peptide text beside a SMILES is read from it.

Legend:
Format in all cases: cell-based, Pseudomonas aeruginosa
[1] = system: Colistin Susceptible P. aeruginosa
Experimental: (§1) The antimicrobial activity of the peptides was tested against a collection of P. aeruginosa, selected by their resistance or susceptibility to colistin and/or classified as MDR strains. The origin of the strains was either clinical, relevant to the current clinical situation, or commercial strains belonging to the American Type Culture Collection (ATCC, Manassas, VA, USA), which complemented the collection for comparison and control. For the initial activity screening of the 17 peptides, we tested them against P. aeruginosa ATCC strains 1211007 and 1211101. Both strains are multidrug-resistant; however, the key difference is that strain 1211007 is susceptible to colistin, whereas strain 1211101 is resistant to colistin.
(§2) Minimum Inhibitory Concentration (MIC) of the antimicrobial agents against bacterial strains was obtained through broth microdilution assays following a protocol based on the Clinical & Laboratory Standards Institute’s guidelines. Modifications regarding microplate material and broth were included when testing the peptides’ activity and are detailed below. Colistin MICs were obtained following recommendations of the joint CLSI-EUCAST Polymyxin Breakpoints Working Group using Cation Adjusted Mueller-Hinton Broth (90922, 500 g Sigma-Aldrich®, St. Louis, MO, USA), and strains Escherichia coli 13846 (mcr-1 positive) and P. aeruginosa ATCC 27853 were used as quality controls in all assays. Bacteria were cultured in Columbia Agar plates (Columbia Agar with 5% Sheep Blood 90 mm Stacker plates, Becton Dickinson, Franklin Lakes, NJ, USA) and incubated overnight at 37 °C. Polypropylene round-bottomed 96-well plates (-96-well Polypropylene Storage Microplates, 267334, Thermo Fischer Scientific, Waltham, MA, USA) were used to prevent peptide binding to plate walls. AST broth (BD Phoenix™ AST broth, 8 mL, 246003, Becton Dickinson, Franklin Lakes, NJ, USA) was used when testing the peptides’ activity. […] Three biological and technical replicates were performed per strain.

[2] = system: Colistin-Resistant P. aeruginosa
Experimental: as §1, §2

[3] = system: P. aeruginosa Strain 121007
Experimental: as §1, §2

[4] = system: P. aeruginosa Strain ATCC 121110
Experimental: as §1, §2

[5] = system: P. aeruginosa strain panel; details: for MIC50 / MIC90: panel of 15 P. aeruginosa strains
Experimental: as §1, §2

[6] = colistin-susceptible P. aeruginosa
[7] = colistin-susceptible P. aeruginosa, value in brackets
[8] = colistin-resistant P. aeruginosa
[9] = colistin-resistant P. aeruginosa, value in brackets

Molecule	MIC [1, 6] [mg/L]	MIC [1, 7] [µM]	MIC [2, 9] [µM]	MIC ([1]; Colistin Susceptible) [mg/L]	MIC ([2]; Colistin-Resistant) [mg/L]	also measured
CC[C@H](C)[C@@H]1NC(=O)[C@@H](NC(=O)[C@@H](NC(=O)[C@@H]2CCCN2C(=O)[C@H](Cc2ccccc2)NC(=O)[C@H](Cc2c[nH]cn2)NC(=O)[C@@H](NC(=O)[C@@H](N)CC(=O)O)[C@@H](C)O)[C@@H](C)CC)CSSC[C@@H](C(=O)N[C@@H](CCCCN)C(=O)N[C@H](C(=O)O)[C@@H](C)O)NC(=O)[C@@H]2CSSC[C@@H]3NC(=O)[C@@H]4CSSC[C@H](NC(=O)[C@H](Cc5ccccc5)NC1=O)C(=O)N[C@@H](CSSC[C@H](NC(=O)[C@H](CCCCN)NC(=O)[C@H](CO)NC(=O)[C@H](CCCNC(=N)N)NC(=O)[C@H](Cc1c[nH]cn1)NC3=O)C(=O)NCC(=O)N[C@@H](CCSC)C(=O)N2)C(=O)NCC(=O)N4 [Hepcidin]	> 256	> 92	> 92	–	–	MIC [2, 8]: > 256 mg/L
CC[C@@H](C)[C@@H](NC(=O)CNC(=O)[C@@H](CCC(N)=O)NC(=O)[C@@H](CCCCN)NC(=O)[C@H](NC(=O)[C@@H](CCC(N)=O)NC(=O)CNC(=O)[C@@H](CC(C)C)NC(=O)[C@@H](CC(C)C)NC(=O)[C@H]1CCCN1C(=O)[C@@H](CCCCN)NC(=O)[C@@H](CC(C)C)NC(=O)[C@@H](C)NC(=O)[C@H]1CCCN1C(=O)[C@@H](CCCNC(=N)N)NC(=O)[C@H](NC(=O)[C@@H](CC(=O)O)NC(=O)[C@H](N)Cc1ccc(O)cc1)[C@H](C)O)[C@H](C)CC)C(=O)N[C@H](CCCCN)C(=O)N[C@H](CCCCN)C(=O)N[C@H](CC(C)C)C(=O)N[C@H](CCCCN)C(=O)N[C@H](CCC(=O)O)C(=O)N[C@H](CCCCN)C(=O)N[C@@H](C(=O)N[C@H](CCCCN)C(=O)N[C@H](CC(N)=O)C(=O)N[C@H](CCCNC(=N)N)C(=O)N[C@H](Cc1ccccc1)C(=O)N[C@H](CCCCN)C(=O)N[C@H](CCCNC(=N)N)C(=O)N[C@H](CC(C)C)C(=O)N[C@H](CCCNC(=N)N)C(=O)N[C@H](CCCCN)C(=O)N[C@H](CCCNC(=N)N)C(=O)N[C@H](CC(C)C)C(=O)NCC(=O)O)[C@H](C)CC [R-CAP-18, Ydtrpalkpllgqikqgikklkekiknrfkrlrkrlg] (H-[dY][dD][dT][dR][dP][dA][dL][dK][dP][dL][dL]G[dQ][dI][dK][dQ]G[dI][dK][dK][dL][dK][dE][dK][dI][dK][dN][dR][dF][dK][dR][dL][dR][dK][dR][dL]G-OH)	–	–	–	–	–	MIC ([3]; Strain 121007): 2 mg/L; MIC ([3]; Strain 121007, value in brackets): 0.4 µM; MIC ([4]; Strain ATCC 121110): 32 mg/L; MIC ([4]; Strain ATCC 121110, value in brackets): 7.2 µM
CC[C@H](C)[C@@H]1NC(=O)[C@@H]2CSSC[C@@H]3NC(=O)[C@H](Cc4ccccc4)NC(=O)[C@H](C)NC(=O)[C@H](Cc4c[nH]c5ccccc45)NC(=O)[C@H](CC(C)C)NC(=O)[C@H](CCCNC(=N)N)NC(=O)CNC(=O)[C@H](CCC(N)=O)NC(=O)[C@H](Cc4ccc(O)cc4)NC(=O)[C@H]([C@@H](C)CC)NC(=O)[C@H](CSSC[C@H](NC(=O)[C@H](Cc4ccc(O)cc4)NC(=O)[C@@H](N)CSSC[C@@H](C(=O)O)NC3=O)C(=O)N[C@@H](CCCNC(=N)N)C(=O)N[C@@H]([C@@H](C)CC)C(=O)N3CCC[C@H]3C(=O)N[C@@H](C)C(=O)N2)NC(=O)[C@H]([C@@H](C)O)NC(=O)CNC(=O)[C@H](Cc2ccc(O)cc2)NC(=O)[C@H](CCCNC(=N)N)NC(=O)[C@H](CCCNC(=N)N)NC(=O)[C@H](CCC(=O)O)NC(=O)CNC(=O)[C@H](C)NC1=O [α-defensin 2] (H-CYCRIPACIAGERRYGTCIYQGRLWAFCC-OH; disulfide 1-29, 3-18, 8-28; N-terminus and C-terminus assumed)	–	> 15	> 15	> 50	> 50	–
CC[C@H](C)[C@@H]1NC(=O)[C@H](CCC(=O)O)NC(=O)[C@@H]2CSSC[C@@H]3NC(=O)[C@H](Cc4ccc(O)cc4)NC(=O)[C@@H](NC(=O)[C@@H](NC(=O)[C@H](C)N)[C@@H](C)O)CSSC[C@@H](C(=O)N[C@@H](CCCNC(=N)N)C(=O)O)NC(=O)[C@H](CSSC[C@H](NC(=O)[C@H](CCCNC(=N)N)NC(=O)CNC(=O)[C@H]([C@@H](C)O)NC(=O)[C@H](CCCNC(=N)N)NC3=O)C(=O)N[C@@H](C)C(=O)N[C@@H]([C@@H](C)O)C(=O)N[C@@H](CCCNC(=N)N)C(=O)N[C@@H](CCC(=O)O)C(=O)N[C@@H](CO)C(=O)N[C@@H](CC(C)C)C(=O)N[C@@H](CO)C(=O)NCC(=O)N[C@@H](C(C)C)C(=O)N2)NC(=O)[C@H](CC(C)C)NC(=O)[C@H](CCCNC(=N)N)NC(=O)[C@H](Cc2ccc(O)cc2)NC(=O)[C@H](CC(C)C)NC(=O)[C@H](CCCNC(=N)N)NC(=O)CNC(=O)[C@H](CO)NC1=O [α-defensin 5] (H-ATCYCRTGRCATRESLSGVCEISGRLYRLCCR-OH; disulfide 3-31, 5-20, 10-30; N-terminus and C-terminus assumed)	50	14	–	–	–	–
CC[C@H](C)[C@@H]1NC(=O)CNC(=O)[C@H](CCSC)NC(=O)[C@H](C(C)C)NC(=O)[C@H]([C@@H](C)O)NC(=O)[C@@H]2CSSC[C@@H]3NC(=O)[C@H](Cc4c[nH]cn4)NC(=O)[C@@H](NC(=O)[C@@H](NC(=O)[C@H](Cc4ccccc4)NC(=O)[C@H](C)N)[C@@H](C)O)CSSC[C@@H](C(=O)N[C@@H](CC(C)C)C(=O)O)NC(=O)[C@H](CSSC[C@H](NC(=O)[C@H](CO)NC(=O)[C@H](CCCNC(=N)N)NC(=O)[C@H](CCCNC(=N)N)NC3=O)C(=O)N[C@@H](Cc3ccc(O)cc3)C(=O)N[C@@H](CO)C(=O)N[C@@H]([C@@H](C)O)C(=O)N[C@@H](CCC(=O)O)C(=O)N[C@@H](Cc3ccc(O)cc3)C(=O)N[C@@H](CO)C(=O)N[C@@H](Cc3ccc(O)cc3)C(=O)NCC(=O)N[C@@H]([C@@H](C)O)C(=O)N2)NC(=O)[C@H](Cc2ccccc2)NC(=O)[C@H](CCCNC(=N)N)NC(=O)[C@H](Cc2c[nH]cn2)NC(=O)[C@H](CC(N)=O)NC1=O [α-defensin 6]	–	> 13	> 13	> 50	> 50	–
AKKVFKRLEKLFSKIQNDK [HP 2-20]	> 256	> 110	> 110	–	–	MIC [2, 8]: > 256 mg/L
Colistin [reference compound]	0.75	0.7	28	–	–	MIC [2, 8]: 32 mg/L; MIC50 [5]: ≤ 0.125 mg/L; MIC90 [5]: 64 mg/L; MIC50 ([5]; value in brackets): ≤ 0.11 µM; MIC90 ([5]; value in brackets): 55 µM; MIC ([5]; strain 12-1110 S1): ≤0.125 mg/L; MIC ([5]; strain 15-0307 S4): ≤0.125 mg/L; MIC ([5]; strain 15-0803 S3): ≤0.125 mg/L; MIC ([5]; strain 21-0308 R2): 64 mg/L; MIC ([5]; strain 21-0410 S5): ≤0.125 mg/L; MIC ([5]; strain 21-0505 S2): ≤0.125 mg/L; MIC ([5]; strain 36a): 0.25 mg/L; MIC ([5]; strain 38a): ≤0.125 mg/L; MIC ([5]; strain 27853): ≤0.125 mg/L; MIC ([5]; strain 16359347-2 R3): 64 mg/L; MIC ([5]; strain C1): 0.25 mg/L; MIC ([5]; strain C2): 0.5 mg/L; MIC ([5]; strain C3): ≤0.125 mg/L; MIC ([5]; strain C4): 0.25 mg/L; MIC ([5]; strain C5): ≤0.125 mg/L
GIGDPVTCLKSGAICHPVFCPRRYKQIGTCGLPGTKCCKKP (disulfide 8-37, 15-30, 20-38) [β-defensin 2]	> 50	> 12	> 12	–	–	MIC [2, 8]: > 50 mg/L
GIINTLQKYYCRVRGGRCAVLSCLPKEEQIGKCSTRGRKCCRRKK (disulfide 11-40, 18-33, 23-41) [β-defensin 3]	–	> 10	> 10	> 50	> 50	–
GLLRKGGEKIGEKLKKIGQKIKNFFQKLVPQPEQ [CRAMP]	–	–	8	–	32	–
GLVRKGGEKFGEKLRKIGQKIKEFFQKLALEIEQ [r-CRAMP]	–	> 65	16	> 256	64	–
ISRLAGLLRKGGEKIGEKLKKIGQKIKNFFQKLVPQPEQ [CRAMP 1-39]	–	–	7	–	32	–
KYYGNGVSCNKKGCSVDWGKAIGIIGNNSAANLATGGAAGWSK (disulfide 9-14) [Mundticin]	–	> 60	> 60	> 256	> 256	–
RRRPRPPYLPRPRPPPFFPPRLPPRIPPGFPPRFPPRFP-NH2 (C-terminus assumed) [PR39]	–	14	7	–	–	–
SSLLEKGLDGAKKAVGGLGKLGKDAVEDLESVGKGAVHDVKDVLDSVL [Dermicidin]	–	> 53	> 53	> 256	> 256	–
